Results published in US7402597B2, “Activator of peroxisome proliferator-activated receptor δ” (Nippon Chemiphar Co., Ltd, priority 2001, dated 2008).
Read-outs that look alike come from different tables or passages of the source.

Columns and labels:
PPARα = target: T1, PPARα (Homo sapiens, UniProt Q07869); assay: PPARα transactivation activity (GAL4-hPPARα LBD luciferase reporter in CV-1 cells); type: cell-based; details: for Relative PPARα transactivation activity (α): test compound 10^-6 M, 40 hours, CV-1 cells, 100% = 10^-4 M, 0% = DMSO (0.1%); for Relative activity for PPAR transactivation, α: compounds at 10^-7 M
T1 construct: Receptor expression plasmid (GAL4-hPPARα, LBD GAL4-hPPARγ LBD, GAL4-hPPARδ LBD); expressed in transfected cells; host or cells: CV-1 cells
T1 sequence (Q07869 239-466 limits assumed): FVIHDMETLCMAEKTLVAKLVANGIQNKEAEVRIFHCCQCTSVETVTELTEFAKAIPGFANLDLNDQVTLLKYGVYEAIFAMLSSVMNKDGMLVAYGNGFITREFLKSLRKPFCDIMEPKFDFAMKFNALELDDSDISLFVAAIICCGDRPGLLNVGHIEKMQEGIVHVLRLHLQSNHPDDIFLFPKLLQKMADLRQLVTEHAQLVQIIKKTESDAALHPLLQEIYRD
Procedure: (§1) (1) Measurement of PPARα, γ, δ transactivation activity
PPARα, γ, δ transactivation activity of each compound [Examples 1-4] was measured in the manner described below.
(§2) CV-1 cells were obtained from Tohoku University Aging Medical Laboratory, Medical Cell Collection Center. All test compounds were dissolved in dimethylsulfoxide (DMSO). Final concentration of DMSO was 0.1%.
Receptor expression plasmid (GAL4-hPPARα, LBD GAL4-hPPARγ LBD, GAL4-hPPARδ LBD), Reporter plasmid (UASx4-TK-LUC), and β-galactosidase expression plasmid (βGAL) similar to Kliewer, S. A., et al., ((1992) Nature, 358:771-774) were used.
(§3) CV-1 cells were seeded in 24 well culture plates at 2×10^5 cells per well, and cultured for 24 hours OPTI-MEM I Reduced Serum Medium (Life Technologies, 500 μL/well) containing 4%-fetal bovine serum (FBS). After washing with OPTI-MEM, transfection mixture (250 μL/well) containing 0.03 μg of GAL4-hPPARδ LBD, 0.25 μg of UASx4-TK-LUC, 0.35 μg of βGAL, and 2 μL of lipofection reagent, DMRIE-C (Life Technologies) were added. The cells were incubated for 5 hours at 37° C.
The cells were washed and incubated for 40 hours in the presence of the test compound (final concentration was 10^−6M).
(§4) The culture medium was removed and the cells were washed with PBS twice. A solubilizing buffer (100 μL/well) containing 25 mM Tris-PO4 (pH 7.8), 15%v/v glycerol, 2% CHAPS, 1% Lecithin, 1% BSA, 4 mM EGTA (pH 8.0), 8 mM MgCl2, 1 mM DTT was added. After the incubation for 10 minutes at room temperature, a portion (20 μL) of the solution was transferred into a 96-well plate. Subsequently, 100 μL of luciferase substrate solution (Piccagene: available from Nippon Gene Co., Ltd.) was added, and a luminous intensity per one second (luciferase activity) was measured using a microluminoreader (Type MLR-100, Corona Electrics Co., Ltd.). Each luciferase activity was corrected by the transfection efficiency which was calculated from β-galactosidase activity. The assay method of β-galactosidase activity was as follows: A portion (50 μL) of the solubilized sample was transferred into another 96-well plate; 100 μL of ONPG (2-nitrophenyl-β-galactopyranoside) solution was added and incubated for 5 minutes at room temperature. 50 μL of a reaction stopping solution (1M sodium carbonate solution) was added. Then the absorbance at 414 nm was measured.
A relative PPAR activity was calculated as follows: 0% (luciferase activity of cells treated with DMSO (0.1%) alone), 100% (luciferase activity of cells treated with a control (PPARα: 10^−4 M […], PPARγ: 10^−5 M Rosiglitazone, PPARδ: 10^−4 M L-165041)).
PPAR transactivation activities of the compounds of Examples 5-10 were assayed in the same manner as described in Example 11.
Relative activities for PPAR transactivation were shown.
Each value represents as % of control. Cells were cultured in the presence of compounds at 10^−7 M except that PPARδ of Examples 5, 6 and 7 were assayed at 10^−8 M.

PPARγ = target: T2, PPARγ (Homo sapiens, UniProt P37231); assay: PPARγ transactivation activity (GAL4-hPPARγ LBD luciferase reporter in CV-1 cells); type: cell-based; details: for Relative PPARγ transactivation activity (γ): test compound 10^-6 M, 40 hours, CV-1 cells, 100% = 10^-5 M Rosiglitazone, 0% = DMSO (0.1%)
T2 construct: Receptor expression plasmid (GAL4-hPPARα, LBD GAL4-hPPARγ LBD, GAL4-hPPARδ LBD); expressed in transfected cells; host or cells: CV-1 cells
T2 sequence (P37231 238-503 limits assumed): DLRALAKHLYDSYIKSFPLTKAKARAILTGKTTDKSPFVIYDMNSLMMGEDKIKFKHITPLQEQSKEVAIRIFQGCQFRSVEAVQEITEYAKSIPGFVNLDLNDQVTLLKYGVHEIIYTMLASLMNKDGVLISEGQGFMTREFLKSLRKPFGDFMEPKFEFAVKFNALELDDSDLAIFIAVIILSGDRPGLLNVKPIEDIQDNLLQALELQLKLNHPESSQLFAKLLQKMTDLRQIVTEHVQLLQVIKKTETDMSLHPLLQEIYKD
Procedure: as §1, §2
as §3, with “C. […]” for “C.”
as §4

PPARδ = target: T3, PPARδ (Homo sapiens, UniProt Q03181); assay: PPARδ transactivation activity (GAL4-hPPARδ LBD luciferase reporter in CV-1 cells); type: cell-based; details: for PPARδ transactivation activity (statement in words on Table 25) / Relative PPARδ transactivation activity (δ): CV-1 cells, test compound 10^-6 M; for PPARδ transactivation activity (statement in words on Table 25): control 10^-4 M L-165041 = 100%; for Relative PPARδ transactivation activity (δ): 40 hours, 100% = 10^-4 M L-165041, 0% = DMSO (0.1%)
T3 construct: transfection mixture (250 μL/well) containing 0.03 μg of GAL4-hPPARδ LBD; expressed in transfected cells; host or cells: CV-1 cells
T3 sequence (Q03181 211-439 limits assumed): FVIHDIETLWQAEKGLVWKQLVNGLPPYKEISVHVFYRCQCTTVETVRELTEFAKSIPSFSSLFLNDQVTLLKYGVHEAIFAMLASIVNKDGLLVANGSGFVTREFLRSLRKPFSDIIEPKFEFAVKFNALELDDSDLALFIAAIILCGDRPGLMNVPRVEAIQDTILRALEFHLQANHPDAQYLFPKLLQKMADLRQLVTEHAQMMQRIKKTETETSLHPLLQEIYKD
Procedure: PPARδ transactivation activity of the compound of the invention was measured in the manner described below.
A receptor expression plasmid (GAL4-hPPARδ LBD), a reporter plasmid (UASx4-TK-LUC) and a β-galactosidase (β-GAL) expression plasmid were transfected into CV-1 cells by using DMRIE-C reagent. Subsequently, the cells were incubated for 40 hours in the presence of a compound of the invention, and then the luciferase and β-GAL activities of the cell lysate were assayed.
as §1, §2
as §3, with “C. […]” for “C.”
as §4

db/db mice = system: db/db mice
Procedure: HDL cholesterol elevating effect was measured by using db/db mice, which are hereditary obesity mice. The db/db mice (10 weeks old) were divided into groups based on serum HDL cholesterol levels. […] Mice of the control group (to which no agent was administered) were orally given 1% methyl cellulose solution. After 16 hours from the final administration, blood sample was collected, and serum HDL cholesterol level was measured. HDL cholesterol was separated by electrophoresis on agarose gels (Chol/Trig Combo, Helena Laboratories). Serum total cholesterol levels were measured enzymaticallly using a kit (Pure Auto, Daiichi Chemicals) by an automatic analyzer (7060E type, Hitachi Ltd.). HDL cholesterol levels were calculated from total cholesterol levels and HDL cholesterol/total cholesterol ratios.
Each value represents as % of the control group.

[1] = compounds at 10^-8 M (Examples 5, 6 and 7)

Row | Structure (SMILES) | Relative PPARα transactivation activity (α) (PPARα) | Relative PPARγ transactivation activity (γ) (PPARγ) | Relative PPARδ transactivation activity (δ) (PPARδ) | Relative activity for PPAR transactivation, α (PPARα) | Relative activity for PPAR transactivation, γ (PPARγ; compounds at 10^-7 M) | Relative activity for PPAR transactivation, δ (PPARδ; [1]) | Relative activity for PPAR transactivation, δ (PPARδ; compounds at 10^-7 M) | further results
1 | C=CCc1c(OCC(=O)O)ccc2c(CCc3nc(-c4ccc(Cl)cc4Cl)oc3C(C)C)noc12 [Example 1, [[7-Allyl-3-[2-[2-(2,4-dichlorophenyl)-5-isopropyl-4-oxazolyl]ethyl]-1,2-benzisoxazol-6-yl]oxy]acetic acid] | 0.1% | 9.4% | 76.9% | – | – | – | – | PPARδ transactivation activity (statement in words on Table 25) (PPARδ): selective PPARδ transactivation activity
2 | C=CCc1c(OC(C)(C)C(=O)O)ccc2c(CCc3nc(-c4ccc(Cl)cc4Cl)oc3C(C)C)noc12 [Example 2, 2-[[7-Allyl-3-[2-[2-(2,4-dichlorophenyl)-5-isopropyl-4-oxazolyl]ethyl]-1,2-benzisoxazol-6-yl]oxy]-2-methylpropionic acid] | 8.0% | 3.2% | 67.8% | – | – | – | – | PPARδ transactivation activity (statement in words on Table 25) (PPARδ): selective PPARδ transactivation activity
3 | C=CCc1c(OC(C)(C)C(=O)O)ccc2c(CCc3sc(-c4ccc(C(F)(F)F)cc4)nc3C(C)C)noc12 [Example 4, 2-[[7-Allyl-3-[2-[2-[(4-trifluoromethyl)phenyl]-4-isopropyl-5-thiazolyl]ethyl]-1,2-benzisoxazol-6-yl]oxy]-2-methylpropionic acid] | 85.0% | 9.5% | 59.9% | – | – | – | – | –
4 | Cc1cc2c(CCc3sc(-c4ccc(C(F)(F)F)cc4)nc3C(C)C)noc2cc1OCC(=O)O [Example 5, [3-[2-[4-Isopropyl-2-(4-trifluoromethyl)phenyl-5-thiazolyl]-ethyl]-5-methyl-1,2-benzisoxazol-6-yl]oxyacetic acid] | – | – | – | 0 % of control | 0 % of control | 75 % of control | – | –
5 | Cc1cc2c(CCc3sc(-c4ccc(C(F)(F)F)cc4)nc3C(C)C)noc2cc1OC(C)(C)C(=O)O [Example 6, 2-[[3-[2-[4-Isopropyl-2-(4-trifluoromethyl)phenyl-5-thiazolyl]ethyl]-5-methyl-1,2-benzisoxazol-6-yl]oxy]-2-methylpropionic acid] | – | – | – | 0 % of control | – | 54 % of control | – | Relative activity for PPAR transactivation, γ (PPARγ): 0 % of control; Ratio of increasing HDL cholesterol (db/db mice; 10 mg/kg b.i.d. orally for one week, serum 16 hours after final administration): 164 % to control; HDL cholesterol elevating effect (statement in words on Table 27) (db/db mice; oral, twice daily for one week, serum HDL cholesterol 16 hours after final administration): potent HDL cholesterol elevating effect
6 | Cc1cc2c(CCc3sc(-c4ccc(C(F)(F)F)cc4)nc3C(C)C)noc2cc1SCC(=O)O [Example 7, [3-[2-[4-Isopropyl-2-(4-trifluoromethyl)phenyl-5-thiazolyl]ethyl]-5-methyl-1,2-benzisoxazol-6-yl]thioacetic acid] | – | – | – | 0 % of control | 0 % of control | 63 % of control | – | –
7 | Cc1cc2c(CCc3sc(-c4ccc(C(F)(F)F)cc4)nc3C(C)C)noc2cc1NCC(=O)O [Example 8, [3-[2-[4-Isopropyl-2-(4-trifluoromethyl)phenyl-5-thiazolyl]ethyl]-5-methyl-1,2-benzisoxazol-6-yl]aminoacetic acid] | – | – | – | 0 % of control | 0 % of control | – | 61 % of control | –
8 | Cc1cc2c(CCc3nc(-c4ccc(Cl)cc4Cl)oc3C(C)C)noc2cc1OCC(=O)O [Example 9, (3-[2-[2-(2,4-Dichlorophenyl)-5-isopropyl-4-oxazolyl]ethyl]-5-methyl-1,2-benzisoxazol-6-yl]oxyacetic acid] | – | – | – | 0 % of control | 2 % of control | – | 86 % of control | –
9 | Cc1cc2c(CCc3sc(-c4ccc(C(F)(F)F)cc4)nc3C(C)C)noc2cc1OC(C)(C)C(=O)OCCN1CCCCC1.Cl [Example 10, 2-[[3-[2-[4-Isopropyl-2-(4-trifluoromethyl)phenyl-5-thiazolyl]ethyl]-5-methyl-1,2-benzisoxazol-6-yl]oxy]-2-methylpropionic acid 2-piperidin-1-yl ethyl ester hydrochloride] | – | – | – | 3 % of control | 0 % of control | – | 75 % of control | –
